Experimental findings from PMC8537897, “Design, Synthesis and Biological Evaluation of Aromatase Inhibitors Based on Sulfonates and Sulfonamides of Resveratrol” (Pharmaceuticals, 2021) are described below.

What is called melting point is the temperature, or range, at which the solid turns liquid. The inhibition is the percentage by which the read-out fell short of the control. Higher therefore signals a response far below the control. In general, IC50 refers to the concentration needed to halve the response being measured.

Where two headings read alike, the source gives them in different places.

Data set [1] deals with T1, human aromatase (Homo sapiens, UniProt P11511).
T1 construct: purchased BioVision, Milpitas, CA, USA
T1 sequence (P11511 1-503): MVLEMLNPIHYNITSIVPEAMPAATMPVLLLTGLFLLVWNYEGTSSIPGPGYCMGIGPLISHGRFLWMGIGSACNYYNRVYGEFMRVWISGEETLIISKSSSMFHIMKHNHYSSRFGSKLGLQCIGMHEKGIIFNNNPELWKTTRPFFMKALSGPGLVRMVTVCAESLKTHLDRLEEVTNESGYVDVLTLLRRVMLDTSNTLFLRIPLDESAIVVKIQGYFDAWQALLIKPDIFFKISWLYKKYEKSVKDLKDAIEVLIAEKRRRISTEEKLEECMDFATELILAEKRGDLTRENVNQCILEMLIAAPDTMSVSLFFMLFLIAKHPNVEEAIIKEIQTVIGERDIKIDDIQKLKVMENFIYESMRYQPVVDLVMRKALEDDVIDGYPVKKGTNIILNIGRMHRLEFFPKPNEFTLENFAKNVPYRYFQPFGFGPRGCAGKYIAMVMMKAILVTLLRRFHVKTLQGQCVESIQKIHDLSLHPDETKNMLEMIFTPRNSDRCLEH
The experiment in a line: Aromatase inhibition, fluorimetric assay kit (Aromatase-CYP19A Inhibitor Screening kit, BioVision). Particulars: for Aromatase inhibition (in words): screening at 1 µM. It is filed as biochemical. The protocol:
The activity was measured each minute for 60 min and the value obtained for each compound after 10 min was chosen to calculate the percentage of the aromatase inhibition.
The aromatase inhibitory activity was determined using a commercial fluorimetric assay kit (Aromatase-CYP19A Inhibitor Screening kit, BioVision, Milpitas, CA, USA), as reported elsewhere. The assay utilizes a fluorogenic aromatase substrate that is converted into a highly fluorescent metabolite detected in the visible range (Ex/Em 488/527 nm). […] During the incubation, the Aromatase Substrate/NADP+ mixture was prepared, and the reaction was started by adding 30 µL of this solution to each well (aside from the background control), reaching a final reaction volume of 100 µL/well. The fluorescence emission (527 nm) was measured immediately (within 1 min) by means of a fluorometer equipped with a 488 nm filter (GloMax®-Multi Detection System, Promega, Madison, WI, USA) and afterwards monitored for 60 min. […] The assay was performed in the same experimental conditions used for the initial screening of compounds. Dose–response curves were fitted with GraphPad Prism 5.0 (GraphPad Software, San Diego, CA, USA).

The test system of data set [2] is MCF7 cells. Nature of the data set: Cytotoxicity test (lactate dehydrogenase release). The data set is classed as cell-based, human. Particulars: MCF7, 0–250 µM, 24 h. The protocol:
To assess whether the decrease in metabolic activity is a consequence of cytotoxic occurrence in the presence of compounds 1b, 1c, and 1j, lactate dehydrogenase (LDH) released from MCF7 was measured in response to loading concentrations of 0–250 µM after a 24 h exposure. […] It is, therefore, plausible to assume that all tested compounds exert their anti-proliferative effect on MCF7 cells through cytotoxic induction and 1c is the most promising compound, being active already at lower doses.
MCF7 cells were seeded and stimulated as previously described for the MTT test. After the exposure time, cell supernatants were collected, centrifuged at 450× g for 4 min, and stored on ice. In order to quantify the cytotoxicity of loading concentrations of compounds 1b, 1c, and 1j (0–250 µM), the CytoTox 96® Non-Radioactive Cytotoxicity Assay (Promega Corporation, Madison, WI, USA) was performed as previously reported. The results were normalized on MTT absorbances and expressed as fold increases on the LDH released by cultures in the presence of vehicle (DMSO) set as 1.

Data set [3] concerns MCF7 breast cancer cell line. The experiment in a line: Cell metabolic activity / viability (MTT assay) on MCF7.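 As to all read-outs here: MTT optical density read-out in human MCF7 cells, normalised to DMSO vehicle-treated cells as 100%, with IC50 derived from fitted concentration–response curves.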 To be noted: for IC50: Homo sapiens, MTT, tested 0 to 500 µM. It is filed as cell-based, human. On the technique in general: Tetrazolium assays rely on reduction of a dye to a coloured formazan, in cell work by metabolically active cells.
Protocol: Human skin fibroblasts (HFF-1, CVCL_3285) and human breast cancer MCF7 (HTB-22™, CVCL_0031) were purchased from ATCC and maintained in Dulbecco’s modified Eagle’s medium (DMEM) high glucose (EuroClone, Milan, Italy) supplemented with 10% of fetal bovine serum (FBS) and 1% of penicillin/streptomycin (Gibco—Thermo Fisher Scientific, MD, USA).
Cell metabolic activity of HFF-1 and MCF7 cells was assessed by MTT (3-(4,5-Dimethylthiazol-2-yl)-2,5-Diphenyltetrazolium Bromide) test (Sigma Aldrich, Milan, Italy). […] After the established exposure times, cells were incubated with MTT (0.5 mg/mL) and the optical density was measured as reported elsewhere [63]. Results were expressed as the percentage of cells in the presence of vehicle (DMSO) set as 100% and each experiment was performed in triplicate (n = 3). Concentration–response curves and IC50 were fitted and calculated with GraphPad Prism 5.0 (GraphPad Software, San Diego, CA, USA).
Setting [4] is: MCF7, 24 h, 24 h, read-out: MCF7 Cells IC50 24 h.
[5] abbreviates: MCF7, 72 h, 72 h, read-out: MCF7 Cells IC50 72 h.

Compound `O=S(=O)(Oc1ccc(/C=C/c2ccccc2)cc1)c1ccccc1` [1a, 4-[(E)-2-Phenylvinyl]phenylbenzenesulfonate] yielded a melting point of 127 to 130 °C. In addition, the “Aromatase inhibition (in words)” value in data set [1] is “very low activity”.

`O=[N+]([O-])c1cccc(S(=O)(=O)Oc2ccc(/C=C/c3ccccc3)cc2)c1` [1b, 4-[(E)-2-Phenylvinyl]phenyl 3-nitrobenzenesulfonate]: the melting point was 152 to 155 °C. In data set [1], this compound returned an inhibition at 1 µM of 97%. The midpoint of inhibition in data set [1] (tested at concentrations from 0.01 to 100 μM, mean of triplicate determinations), the IC50, lay at 2.51 µM. Further, in data set [2], the “LDH release, dose dependence (in words)” value is recorded as “raises only at the highest concentration administered (250 µM)”. In addition, the IC50 in data set [3] (setting [4]) was found to be 159 ± 9.9 µM. The IC50 in data set [3] (setting [5]) amounted to 240 ± 6.7 µM. Besides, in data set [3] (MCF7, 10 µM, 24 h), the “Viability (% of control) - 24 h” value is reported as 69.32 ± 14.99 % of control. Further, the “Viability (% of control) - 72 h” value in data set [3] (MCF7, 10 µM, 72 h) was 98.33 ± 5.24 % of control. Also, the “Viability (% of control) - 24 h” value in data set [3] (MCF7, 25 µM, 24 h) is 79.12 ± 9.66 % of control. The “Viability (% of control) - 72 h” value in data set [3] (MCF7, 25 µM, 72 h) was 99.99 ± 9.30 % of control. The “Viability (% of control) - 24 h” value in data set [3] (MCF7, 50 µM, 24 h) was 80.69 ± 4.08 % of control. Besides, the “Viability (% of control) - 72 h” value in data set [3] (MCF7, 50 µM, 72 h) is 93.39 ± 5.39 % of control. In addition, the “Viability (% of control) - 24 h” value in data set [3] (MCF7, 100 µM, 24 h) is recorded as 73.93 ± 1.87 % of control. In addition, in data set [3] (MCF7, 100 µM, 72 h), the “Viability (% of control) - 72 h” value is given as 77.31 ± 7.02 % of control. The “Viability (% of control) - 24 h” value in data set [3] (MCF7, 250 µM, 24 h) is 45.57 ± 3.42 % of control. In data set [3] (MCF7, 250 µM, 72 h), the “Viability (% of control) - 72 h” value is recorded as 57.01 ± 1.01 % of control. Moreover, the “Viability (% of control) - 24 h” value in data set [3] (MCF7, 500 µM, 24 h) is reported as 35.83 ± 2.22 % of control. In data set [3] (MCF7, 500 µM, 72 h), the “Viability (% of control) - 72 h” value is 36.11 ± 0.35 % of control.

The compound `N#Cc1ccc(S(=O)(=O)Oc2ccc(/C=C/c3ccccc3)cc2)cc1` [1e, 4-[(E)-2-Phenylvinyl]phenyl 4-cyanobenzenesulfonate] registered an inhibition at 1 µM in data set [1] of 56.1%.

As for `COc1ccc(S(=O)(=O)Oc2ccc(/C=C/c3ccccc3)cc2)c(OC)c1` [1g, 4-[(E)-2-Phenylvinyl]phenyl 2,4-dimethoxybenzenesulfonate], the melting point was 141 to 142 °C.

Turning to `CCS(=O)(=O)Oc1ccc(/C=C/c2ccccc2)cc1` [1i, 4-[(E)-2-Phenylvinyl]phenyl ethanesulfonate], the melting point was in the range of 112 to 114 °C. This compound displayed an inhibition at 1 µM in data set [1] of 100%.

`O=S(=O)(Oc1ccc(/C=C/c2ccccc2)cc1)c1ccc(Cl)s1` [1k, 4-[(E)-2-Phenylvinyl]phenyl 5-chlorothiophene-2-sulfonate] returned a melting point of 160 to 162 °C. This compound had an inhibition at 1 µM in data set [1] of 60.3%.

Regarding `O=S(=O)(Nc1ccc(/C=C/c2ccccc2)cc1)c1ccccc1` [2a, N-{4-[(E)-2-Phenylvinyl]phenyl}benzenesulfonamide], the melting point lay in the range of 160 to 162 °C. The inhibition at 1 µM in data set [1] was determined as 47.8%.

For the compound `O=[N+]([O-])c1cccc(S(=O)(=O)Nc2ccc(/C=C/c3ccccc3)cc2)c1` [2b, 3-Nitro-N-{4-[(E)-2-phenylvinyl]phenyl}benzenesulfonamide], the melting point lay within 210 to 211 °C. For the same compound, in data set [1], the inhibition at 1 µM worked out at 67.3%.

Compound `Cc1ccc(S(=O)(=O)Nc2ccc(/C=C/c3ccccc3)cc2)cc1[N+](=O)[O-]` [2c, 4-Methyl-3-nitro-N-{4-[(E)-2-phenylvinyl]phenyl}benzenesulfonamide] returned a melting point of 246 to 247 °C. Further, in data set [1], testing at 1 µM gave an inhibition of 44.8%.

Take `Cc1ccc(S(=O)(=O)Nc2ccc(/C=C/c3ccccc3)cc2)cc1` [2d, 4-Methyl-N-{4-[(E)-2-phenylvinyl]phenyl}benzenesulfonamide]: the melting point was in the range of 182 to 183 °C.

`N#Cc1ccc(S(=O)(=O)Nc2ccc(/C=C/c3ccccc3)cc2)cc1` [2e, 4-Cyano-N-{4-[(E)-2-phenylvinyl]phenyl}benzenesulfonamide]: the melting point was 238 to 239 °C.

In turn, `CC(=O)Nc1ccc(S(=O)(=O)Nc2ccc(/C=C/c3ccccc3)cc2)cc1` [2f, N-{4-[({4-[(E)-2-Phenylvinyl]phenyl}amino)sulfonyl]phenyl}acetamide] returned a melting point of 230 to 231 °C.

Regarding `COc1ccc(S(=O)(=O)Nc2ccc(/C=C/c3ccccc3)cc2)c(OC)c1` [2g, 2,4-Dimethoxy-N-{4-[(E)-2-phenylvinyl]phenyl}benzenesulfonamide], the melting point fell in the range of 213 to 215 °C.

Compound `CS(=O)(=O)Nc1ccc(/C=C/c2ccccc2)cc1` [2h, N-{4-[(E)-2-Phenylvinyl]phenyl}methanesulfonamide] gave a melting point of 250 to 251 °C.

Take `CCS(=O)(=O)Nc1ccc(/C=C/c2ccccc2)cc1` [2i, N-{4-[(E)-2-Phenylvinyl]phenyl}ethanesulfonamide]: the melting point is 230 to 231 °C.

As for `O=S(=O)(Nc1ccc(/C=C/c2ccccc2)cc1)c1ccc(Cl)s1` [2k, 5-Chloro-N-{4-[(E)-2-phenylvinyl]phenyl}thiophene-2-sulfonamide], the melting point was 200 to 202 °C. In addition, the “Aromatase inhibition (in words)” value in data set [1] is “inactive”.

With `Oc1ccc(/C=C/c2cc(O)cc(O)c2)cc1` [RSV, trans-3,4′,5-trihydroxystilbene, reference compound], the IC50 is more than 250 µM in data set [3] (setting [4]) and 83 ± 3.8 µM in data set [3] (setting [5]). Also, the “Viability (% of control) - 24 h” value is given as 80.27 ± 3.18 % of control in data set [3] (MCF7, 10 µM, 24 h); 84.94 ± 6.59 % of control in data set [3] (MCF7, 25 µM, 24 h); 87.44 ± 1.93 % of control in data set [3] (MCF7, 50 µM, 24 h); 78.29 ± 4.03 % of control in data set [3] (MCF7, 100 µM, 24 h); 60.29 ± 0.93 % of control in data set [3] (MCF7, 250 µM, 24 h); 34.30 ± 5.01 % of control in data set [3] (MCF7, 500 µM, 24 h). Further, the “Viability (% of control) - 72 h” value in data set [3] (MCF7, 10 µM, 72 h) is 91.92 ± 5.44 % of control; in data set [3] (MCF7, 25 µM, 72 h) it was 73.93 ± 9.52 % of control; in data set [3] (MCF7, 50 µM, 72 h) it was 66.54 ± 5.77 % of control; in data set [3] (MCF7, 100 µM, 72 h), 47.75 ± 2.67 % of control; in data set [3] (MCF7, 250 µM, 72 h), 38.05 ± 8.70 % of control; in data set [3] (MCF7, 500 µM, 72 h) it was 15.33 ± 4.88 % of control. For the same compound, in data set [3] (MCF7, 50 µM, 24 h, DMSO alone = 100%), the Metabolically active cells is “slightly active at this concentration”.
